The results in this text go back to patent US12365667B2, “Sulfone pyridine alkyl amide-substituted heteroaryl compounds” (BRISTOL-MYERS SQUIBB COMPANY, priority 2017, dated 2025).

This experiment concerns IFNα-induced STAT phosphorylation (pSTAT5) in human whole blood. The experiment is described as follows: IFNα-Induced STAT Phosphorylation in Human Whole Blood. Format: cell-based. As to conditions: 1 h incubation with compound, 1000 U/mL recombinant human IFNα A/D for 15 min, pSTAT5 in CD3 positive population, read-out: IFNα-Induced Stat Phosph. (IC50). The procedure:
IFNα-Induced STAT Phosphorylation in Human Whole Blood
After an hour long incubation with compound, human whole blood (drawn with either EDTA or ACD-A as anti-coagulant) was stimulated with 1000 U/mL recombinant human IFNα A/D (R&D Systems 11200-2) for 15 min. The stimulation was stopped by adding Fix/Lyse buffer (BD 558049). Cells were stained with a CD3 FITC antibody (BD 555916), washed, and permeabilized on ice using Perm III buffer (BD 558050). Cells were then stained with an Alexa-Fluor 647 pSTAT5 (pY694) antibody (BD 612599) for 30 min prior to analysis on the FACS Canto II. The amount of pSTAT5 expression was quantitated by median fluorescence intensity after gating on the CD3 positive population.

Like-named read-outs stand apart in the source and are kept apart here.

Regarding `CNC(=O)c1nnc(Nc2ccn3nccc3n2)cc1Nc1nc(C)ccc1S(C)(=O)=O` [Example 195], the IC50 amounted to 211 nM. As to `CNC(=O)c1nnc(Nc2ccc(N3CCOC(C)(C)C3)cn2)cc1Nc1ncccc1S(C)(=O)=O` [Example 105], the IC50 came out at 9 nM. On the same count and under the same terms, in the case of `CNC(=O)c1nnc(Nc2cc(F)c(F)cn2)cc1Nc1ncccc1S(C)(=O)=O` [Example 87] it was 417 nM. With `CNC(=O)c1nnc(Nc2cc(C)n(C)n2)cc1Nc1ncccc1S(C)(=O)=O` [Example 17], the IC50 is 18 nM. Same read-out and setting: in the case of `CNC(=O)c1nnc(Nc2cc(C(F)(F)F)c(C(C)(C)O)cn2)cc1Nc1ncccc1S(C)(=O)=O` [Example 31] it was 31 nM. On the same count and under the same terms, in the case of `CNC(=O)c1cnc(Nc2ccc(OC(F)(F)F)cn2)cc1Nc1ncccc1S(C)(=O)=O` [Example 240] it was 115 nM; in that of `CNC(=O)c1nnc(Nc2ccc(C(C)(C)O)cn2)cc1Nc1nc(C)ccc1S(C)(=O)=O` [Example 188], 6 nM. As to `COc1ccc(Nc2cc(Nc3ncccc3S(C)(=O)=O)c(C(N)=O)nn2)nn1` [Example 213, 6-((6-methoxypyridazin-3-yl)amino)-4-((3-(methylsulfonyl)pyridin-2-yl)amino)pyridazine-3-carboxamide], the IC50 (Homo sapiens) is 114 nM. For `CNC(=O)c1nnc(Nc2ccnc(-c3ccccc3)n2)cc1Nc1ncccc1S(C)(=O)=O` [Example 111], the IC50 was 248 nM.

`CNC(=O)c1nnc(NC(=O)C2CC2)cc1Nc1nc(F)ccc1S(C)(=O)=O` [Example 180]: the IC50 is 73 nM. Take `CNC(=O)c1nnc(NC(=O)C=C2CCOCC2)cc1Nc1ncccc1S(C)(=O)=O` [Example 123]: the IC50 came out at 183 nM.

As for `CNC(=O)c1nnc(Nc2ccc(-c3c(F)cccc3F)nn2)cc1Nc1nc(F)ccc1S(C)(=O)=O` [Example 182], the half-inhibitory concentration (IC50) worked out at 2230 nM. Still for that read-out and setting: under `CNC(=O)c1cnc(Nc2ccc(C(F)(F)F)nn2)cc1Nc1ncccc1S(C)(=O)=O` [Example 223] stands 94 nM; under `CNC(=O)c1nnc(Nc2cnc(C)cn2)cc1Nc1ncccc1S(C)(=O)=O` [Example 93], 28 nM; under `CNC(=O)c1nnc(NC(=O)C2CCC2)cc1Nc1ncccc1S(C)(=O)=O` [Example 9], 77 nM.

On to `[2H]C([2H])([2H])NC(=O)c1cnc(Nc2ccc(F)cn2)cc1Nc1ncccc1S(C)(=O)=O` [Example 215, 6-((5-fluoropyridin-2-yl)amino)-N-(methyl-d3)-4-((3-(methylsulfonyl)pyridin-2-yl)amino)nicotinamide], for which, under “Homo sapiens”, the IC50 was determined as 21 nM. Consider `CNC(=O)c1cnc(Nc2cc(C#N)ccn2)cc1Nc1ncccc1S(C)(=O)=O` [Example 221], for which the IC50 was 13 nM. Same read-out and setting: under `CNC(=O)c1nnc(Nc2ccc(C(C)(C)OC)cn2)cc1Nc1ncccc1S(C)(=O)=O` [Example 157] stands 21 nM; under `CNC(=O)c1nnc(NC(=O)[C@@H]2C[C@H]2C)cc1Nc1ncccc1S(C)(=O)=O` [Example 46], 53 nM.

For the compound `[2H]C([2H])([2H])NC(=O)c1nnc(Nc2ccc(C(C)(C)OC(C)=O)cn2)cc1Nc1ncccc1S(C)(=O)=O` [Example 171, 2-(6-((6-((methyl-d3)carbamoyl)-5-((3-(methylsulfonyl)pyridin-2-yl)amino)pyridazin-3-yl)amino)pyridin-3-yl)propan-2-yl acetate], the IC50 (Homo sapiens) was determined as 9 nM. For `CNC(=O)c1nnc(Nc2ccc(C(C)(C)NC(=O)CN)nn2)cc1Nc1ncccc1S(C)(=O)=O` [Example 65], the IC50 was 193 nM. Still for that read-out and setting: in the case of `CNC(=O)c1nnc(Nc2ccc(N3CCOCC3C)cn2)cc1Nc1ncccc1S(C)(=O)=O` (stereo not shown) [Example 103] it was 16 nM; in that of `CNC(=O)c1nnc(Nc2ccc(OCCOC)cn2)cc1Nc1ncccc1S(C)(=O)=O` [Example 158], 10 nM; in that of `CNC(=O)c1nnc(NC(=O)C2CC2)cc1Nc1nc(C)ccc1S(C)(=O)=O` [Example 187], 32 nM. On to `CNC(=O)c1nnc(Nc2cc(C3CC3)nc(COC)n2)cc1Nc1ncccc1S(C)(=O)=O` [Example 41], for which the IC50 was determined as 24 nM. `CNC(=O)c1nnc(Nc2ccc(OC)cn2)cc1Nc1ncccc1S(C)(=O)=O` [Example 2]: the half-inhibitory concentration (IC50) was determined as 26 nM.

As to `CNC(=O)c1nnc(Nc2cncc(-c3ccccc3)n2)cc1Nc1ncccc1S(C)(=O)=O` [Example 115], the IC50 was found to be 190 nM. Turning to `[2H]C([2H])([2H])NC(=O)c1nnc(NC(=O)[C@@H]2C[C@H]2C(F)(F)F)cc1Nc1ncccc1S(C)(=O)=O` [Example 176, N-(methyl-d3)-4-((3-(methylsulfonyl)pyridin-2-yl)amino)-6-((1R,2R)-2-(trifluoromethyl)cyclopropane-1-carboxamido)pyridazine-3-carboxamide], under “Homo sapiens”, the IC50 stood at 132 nM.

Consider `CNC(=O)c1cnc(Nc2cccnn2)cc1Nc1ncccc1S(C)(=O)=O` [Example 224], for which the IC50 was determined as 44 nM.

Consider `CNC(=O)c1cnc(Nc2cc(C(F)(F)F)c(C#N)cn2)cc1Nc1ncccc1S(C)(=O)=O` [Example 231], for which the IC50 came to 360 nM. Still for that read-out and setting: in the case of `CNC(=O)c1nnc(Nc2cc(Cl)n(C)n2)cc1Nc1ncccc1S(C)(=O)=O` [Example 161] it was 47 nM; in that of `CNC(=O)c1nnc(Nc2cc(C(C)(C)N(C)C)ccn2)cc1Nc1ncccc1S(C)(=O)=O` [Example 73], 76 nM. On to `CNC(=O)c1cnc(Nc2cccc(-c3ccccc3)n2)cc1Nc1ncccc1S(C)(=O)=O` [Example 238], for which the IC50 worked out at 2450 nM. On the same count and under the same terms, under `CNC(=O)c1cnc(Nc2cnc(C3CC3)cn2)cc1Nc1ncccc1S(C)(=O)=O` [Example 222] stands 59 nM; under `CNC(=O)c1nnc(Nc2ccnc(C3CC3)n2)cc1Nc1ncccc1S(C)(=O)=O` [Example 40], 18 nM. On the same count and under the same terms, in the case of `CNC(=O)c1nnc(Nc2cc(C)on2)cc1Nc1ncccc1S(C)(=O)=O` [Example 58] it was 24 nM; in that of `CCCC(=O)Nc1cc(Nc2ncccc2S(C)(=O)=O)c(C(=O)NC)nn1` [Example 108], 167 nM; in that of `CCOC(=O)Nc1cc(Nc2ncccc2S(C)(=O)=O)c(C(=O)NC)nn1` [Example 132], 209 nM. For `CNC(=O)c1nnc(Nc2cnc3c(n2)CCCCC3)cc1Nc1ncccc1S(C)(=O)=O` [Example 99], the IC50 stood at 44 nM. For the compound `CNC(=O)c1nnc(Nc2cc(C3CC3)c(C#N)cn2)cc1Nc1ncccc1S(C)(=O)=O` [Example 59], the IC50 came to 219 nM.

On to `CNC(=O)c1nnc(Nc2cc(C(C)(C)NC(C)=O)ccn2)cc1Nc1ncccc1S(C)(=O)=O` [Example 70], for which the IC50 is 1100 nM.

Consider `CNC(=O)c1nnc(Nc2cccc(C(F)(F)F)n2)cc1Nc1ncccc1S(C)(=O)=O` [Example 113], for which the IC50 was determined as 88 nM.

With `[2H]C([2H])([2H])NC(=O)c1cnc(Nc2ccc(-c3ccccc3)cn2)cc1Nc1ncccc1S(C)(=O)=O` [Example 234, N-(methyl-d3)-4-((3-(methylsulfonyl)pyridin-2-yl)amino)-6-((5-phenylpyridin-2-yl)amino)nicotinamide], the IC50 (Homo sapiens) was 636 nM.

In the case of `CCNC(=O)Nc1cc(Nc2ncccc2S(C)(=O)=O)c(C(=O)NC)nn1` [Example 121], the IC50 stood at 39 nM.

Take `CNC(=O)c1nnc(Nc2cc(C)nc(C)n2)cc1Nc1ncccc1[S+](C)[O-]` (stereo not shown) [Example 254]: the IC50 amounted to 186 nM.

In the case of `CCC(=O)Nc1cc(Nc2nc(C)ccc2S(C)(=O)=O)c(C(=O)NC)cn1` [Example 241], the IC50 turned out to be 203 nM.
